We go through 48 compounds from patent publication US20250154163A1, “Pyrimidinone-Containing 17-Beta-Hydroxysteroid Dehydrogenase Type 13 Inhibitors” (ENANTA PHARMACEUTICALS, INC., priority 2023, published 2025).

The test addresses T1, human HSD17β13 (stable HEK293T cell line overexpressing human HSD17β13) (Homo sapiens, UniProt Q7Z5P4).
T1 construct: expressed in transfected cells
T1 sequence (Q7Z5P4 20-300): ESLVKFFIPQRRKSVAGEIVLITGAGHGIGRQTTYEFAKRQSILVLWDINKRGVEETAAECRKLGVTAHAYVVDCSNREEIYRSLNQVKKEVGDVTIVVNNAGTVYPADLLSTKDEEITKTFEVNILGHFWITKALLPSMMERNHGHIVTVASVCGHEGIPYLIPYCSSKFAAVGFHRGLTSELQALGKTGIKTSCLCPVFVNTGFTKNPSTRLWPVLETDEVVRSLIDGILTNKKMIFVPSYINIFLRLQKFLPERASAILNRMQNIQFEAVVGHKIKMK
In words: HSD17β13 inhibitor cell-based screening assay (conversion of estradiol-d2 to estrone-d2 by RF-MS). Particulars: conversion of estradiol-d2 to estrone-d2 after 24 hours. The essentials: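 Cellular IC50 is based on 24-h conversion of estradiol-d2 (5 μM final) to estrone-d2, measured by RF-MS in acetonitrile-precipitated supernatants. Assay uses human HSD17β13-overexpressing HEK293T cells (7.5E3/well, 1% charcoal/dextran FBS MEM), with compounds dosed as a 9-point 1:3 series to 10 μM final. ATPlite luminescence on overexpressing and parent lines measured viability.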
Regarding `COc1ccc(Cn2c(-c3cc(F)c(F)cc3C3CC3)nc3sc4c(O)c(Cl)ccc4c3c2=O)cn1` [Example 168], the IC50 (in general, the point on the concentration scale where inhibition reaches its midpoint) was less than 100 nM. The result for `N#Cc1ccc(-c2nc3sc4c(O)c(Cl)ccc4c3c(=O)n2Cc2cccnc2)c(C2CC2)c1` [Example 170] reads less than 100 nM. `N#Cc1ccc(Cn2c(-c3cc(F)c(F)cc3C3CC3)nc3sc4c(O)c(Cl)ccc4c3c2=O)cn1` [Example 172] came in with an IC50 of less than 100 nM.

Compound `O=c1c2c(nc(-c3cnc(C(F)(F)F)cc3C3CC3)n1Cc1cc(C(F)(F)F)no1)sc1c(O)c(Cl)ccc12` [Example 173] had an IC50 of less than 100 nM. The same measure for `O=c1c2c(nc(-c3ccc(C(F)F)cc3C3CC3)n1Cc1cnc(C(F)(F)F)nc1)sc1c(O)c(Cl)ccc12` [Example 177]: less than 100 nM; for `O=c1c2c(nc(-c3cnc(C(F)(F)F)cc3C3CC3)n1Cc1cnc(C(F)(F)F)nc1)sc1c(O)c(Cl)ccc12` [Example 178]: less than 100 nM; for `O=c1c2c(nc(-c3cnc(C(F)(F)F)cc3C3CC3)n1Cc1ccc(C(F)(F)F)nc1)sc1c(O)c(Cl)ccc12` [Example 179]: less than 100 nM. The result for `O=c1c2c(nc(-c3ccc(C(F)F)cc3C3CC3)n1Cc1ccc(C(F)(F)F)nc1)sc1c(O)c(Cl)ccc12` [Example 180] reads less than 100 nM.

`O=c1c2c(nc(-c3cc(F)c(C(F)F)cc3C3CC3)n1Cc1ccc(C(F)(F)F)nc1)sc1c(O)c(Cl)ccc12` [Example 181] showed an IC50 of less than 100 nM. The result for `Cn1ncc2cc(-c3nc4sc5c(O)c(Cl)ccc5c4c(=O)n3Cc3cnc(C(F)(F)F)nc3)c(C3CC3)cc21` [Example 182] reads less than 100 nM; that for `O=c1c2c(nc(-c3cc(F)c(F)cc3C3CC3)n1Cc1cnc(C(F)(F)F)nc1)sc1c(O)c(F)ccc12` [Example 183], less than 100 nM.

Compound `O=c1c2c(nc(-c3cc(F)c(F)cc3C3CC3)n1Cc1cnc(C(F)(F)F)nc1)sc1c(O)ccc(F)c12` [Example 184] came in with an IC50 of less than 100 nM. As to `CS(=O)(=O)Nc1ccc(-c2nc3sc4c(O)c(Cl)ccc4c3c(=O)n2Cc2cnc(C(F)(F)F)nc2)c(C2CC2)c1` [Example 185], the IC50 is less than 100 nM. For `Cn1cc(Cn2c(-c3ccc(C(F)F)cc3C3CC3)nc3sc4c(O)c(Cl)ccc4c3c2=O)ccc1=O` [Example 186], the concentration for half-maximal inhibition (IC50) was less than 100 nM. The same measure for `Cn1cc(Cn2c(-c3cc(F)c(C(F)F)cc3C3CC3)nc3sc4c(O)c(Cl)ccc4c3c2=O)ccc1=O` [Example 187]: less than 100 nM; for `COc1ccc(-c2nc3sc4c(O)c(Cl)ccc4c3c(=O)n2CCc2cnco2)c(C2CC2)c1` [Example 188, 7-chloro-2-(2-cyclopropyl-4-methoxyphenyl)-8-hydroxy-3-(2-(oxazol-5-yl)ethyl)benzo[4,5]thieno[2,3-d]pyrimidin-4(3H)-one]: 100 to 500 nM. `COc1ccc(-c2nc3sc4c(O)c(Cl)ccc4c3c(=O)n2CCCc2cnco2)c(C2CC2)c1` [Example 189]: the half-maximal inhibitory concentration (IC50) was less than 100 nM. The same measure for `COc1ccc(-c2nc3sc4c(O)c(Cl)ccc4c3c(=O)n2Cc2cnc(C)s2)c(C2CC2)c1` [Example 192]: less than 100 nM; for `COc1ccc(-c2nc3sc4c(O)c(Cl)ccc4c3c(=O)n2Cc2cncn2C)c(C2CC2)c1` [Example 193]: less than 100 nM. The same measure for `Cn1ncc2cc(C3CC3)c(-c3nc4sc5c(O)c(Cl)ccc5c4c(=O)n3Cc3cnco3)cc21` [Example 194]: 500 to 1000 nM; for `Cn1cc2cc(C3CC3)c(-c3nc4sc5c(O)c(Cl)ccc5c4c(=O)n3Cc3cnco3)cc2n1` [Example 195]: less than 100 nM; for `COc1ccc(-c2nc3sc4c(O)c(Cl)ccc4c3c(=O)n2Cc2cnc(C(C)C)s2)c(C2CC2)c1` [Example 196]: less than 100 nM. The result for `COc1ccc(-c2nc3sc4c(O)c(Cl)ccc4c3c(=O)n2Cc2cnc(C(F)F)s2)c(C2CC2)c1` [Example 197] reads less than 100 nM.

Turning to `COc1ccc(-c2nc3sc4c(O)c(Cl)ccc4c3c(=O)n2Cc2cnc(C(F)(F)F)s2)c(C2CC2)c1` [Example 198], the IC50 is less than 100 nM. The same measure for `COc1ccc(-c2nc3sc4c(O)c(Cl)ccc4c3c(=O)n2Cc2cc(C(F)F)no2)c(C2CC2)c1` [Example 199]: less than 100 nM; for `COc1ccc(-c2nc3sc4c(O)c(Cl)ccc4c3c(=O)n2Cc2ncc(C)o2)c(C2CC2)c1` [Example 200, 7-chloro-2-(2-cyclopropyl-4-methoxyphenyl)-8-hydroxy-3-((5-methyloxazol-2-yl)methyl)benzo[4,5]thieno[2,3-d]pyrimidin-4(3H)-one]: less than 100 nM; for `COc1ccc(-c2nc3sc4c(O)c(Cl)ccc4c3c(=O)n2Cc2cnn(C(F)(F)F)c2)c(C2CC2)c1` [Example 201]: less than 100 nM. The result for `COc1ccc(-c2nc3sc4c(O)c(Cl)ccc4c3c(=O)n2Cc2nncs2)c(C2CC2)c1` [Example 202] reads less than 100 nM.

Compound `COc1cc(C2CC2)c(-c2nc3sc4c(O)c(Cl)ccc4c3c(=O)n2Cc2cnco2)cn1` [Example 203] showed a concentration for half-maximal inhibition (IC50) of 100 to 500 nM. The result for `O=c1c2c(nc(-c3cnc(C(F)(F)F)cc3C3CC3)n1Cc1cnco1)sc1c(O)c(Cl)ccc12` [Example 204] reads less than 100 nM; that for `CCc1ncc(Cn2c(-c3cc(F)c(F)cc3C3CC3)nc3sc4c(O)c(Cl)ccc4c3c2=O)s1` [Example 205], less than 100 nM.

Compound `C/C=C/c1cc2cn[nH]c2cc1-c1nc2sc3c(O)c(Cl)ccc3c2c(=O)n1Cc1cnco1` [Example 206] returned a 50% inhibitory concentration (IC50) of 100 to 500 nM. Compound `O=c1c2c(nc(-c3cc(F)c(F)cc3C3CC3)n1Cc1cnccn1)sc1c(O)c(Cl)ccc12` [Example 207] came in with an IC50 of less than 100 nM. The same measure for `COCc1cc(Cn2c(-c3cc(F)c(F)cc3C3CC3)nc3sc4c(O)c(Cl)ccc4c3c2=O)on1` [Example 208]: less than 100 nM; for `O=c1c2c(nc(-c3cc(F)c(F)cc3C3CC3)n1Cc1nncs1)sc1c(O)c(Cl)ccc12` [Example 209]: less than 100 nM; for `N#Cc1ncc(Cn2c(-c3cc(F)c(F)cc3C3CC3)nc3sc4c(O)c(Cl)ccc4c3c2=O)s1` [Example 210]: less than 100 nM. The result for `O=c1c2c(nc(-c3cc(F)c(F)cc3C3CC3)n1Cc1cnn(C(F)(F)F)c1)sc1c(O)c(Cl)ccc12` [Example 211] reads less than 100 nM; that for `O=c1c2c(nc(-c3cc(F)c(F)cc3C3CC3)n1Cc1ccns1)sc1c(O)c(Cl)ccc12` [Example 212], less than 100 nM; that for `O=c1c2c(nc(-c3cc(F)c(F)cc3C3CC3)n1Cc1nn[nH]n1)sc1c(O)c(Cl)ccc12` [Example 213], 1000 to 100000 nM. In turn, `O=c1c2c(nc(-c3cc(F)c(F)cc3C3CC3)n1Cc1cn[nH]n1)sc1c(O)c(Cl)ccc12` [Example 214] came in with a half-maximal inhibitory concentration (IC50) of less than 100 nM. In the case of `O=c1c2c(nc(-c3cc(F)c(F)cc3C3CC3)n1Cc1cn[nH]c1)sc1c(O)c(Cl)ccc12` [Example 215], the half-maximal inhibitory concentration (IC50) is less than 100 nM. The result for `Cn1cc(Cn2c(-c3cc(F)c(F)cc3C3CC3)nc3sc4c(O)c(Cl)ccc4c3c2=O)cn1` [Example 216] reads less than 100 nM; that for `O=c1c2c(nc(-c3cc(F)c(F)cc3C3CC3)n1Cc1nnc(C(F)(F)F)s1)sc1c(O)c(Cl)ccc12` [Example 217], less than 100 nM; that for `COc1ccc(-c2nc3sc4c(O)c(Cl)cc(F)c4c3c(=O)n2Cc2cnco2)c(C2CC2)c1` [Example 218, 7-chloro-2-(2-cyclopropyl-4-methoxyphenyl)-5-fluoro-8-hydroxy-3-(oxazol-5-ylmethyl)benzo[4,5]thieno[2,3-d]pyrimidin-4(3H)-one], less than 100 nM.

On to `O=c1c2c(nc(-c3cc(F)c(F)cc3C3CC3)n1Cc1cc(C(F)(F)F)no1)sc1c(O)c(Cl)cc(F)c12` [Example 219, 7-chloro-2-(2-cyclopropyl-4,5-difluorophenyl)-5-fluoro-8-hydroxy-3-((3-(trifluoromethyl)isoxazol-5-yl)methyl)benzo[4,5]thieno[2,3-d]pyrimidin-4(3H)-one], for which the IC50 is less than 100 nM. For the compound `COc1ccc(-c2nc3sc4c(O)c(Cl)cc(C)c4c3c(=O)n2Cc2cnco2)c(C2CC2)c1` [Example 221], the IC50 fell in the range of 100 to 500 nM. The result for `COc1ccc(-c2nc3sc4c(O)c(Cl)cc(Br)c4c3c(=O)n2Cc2cnco2)c(C2CC2)c1` [Example 222] reads 100 to 500 nM; that for `COc1ccc(-c2nc3sc4c(O)c(F)cc(F)c4c3c(=O)n2Cc2cnco2)c(C2CC2)c1` [Example 223, 2-(2-cyclopropyl-4-methoxyphenyl)-5,7-difluoro-8-hydroxy-3-(oxazol-5-ylmethyl)benzo[4,5]thieno[2,3-d]pyrimidin-4(3H)-one], less than 100 nM.
